ChEMBL document CHEMBL1155339, “Characterization of alpha-nitromethyl ketone as a new zinc-binding group based on structural analysis of its complex with carboxypeptidase A” (Bioorg Med Chem Lett, 2009)

Tests used:
Carboxypeptidase A1 = target: T1, Carboxypeptidase A1 (Homo sapiens, UniProt P15085); test: Inhibition of Carboxypeptidase A assessed as amount of Cl-CPL consumed by UV spectrometer
T1 sequence (P15085 whole entry): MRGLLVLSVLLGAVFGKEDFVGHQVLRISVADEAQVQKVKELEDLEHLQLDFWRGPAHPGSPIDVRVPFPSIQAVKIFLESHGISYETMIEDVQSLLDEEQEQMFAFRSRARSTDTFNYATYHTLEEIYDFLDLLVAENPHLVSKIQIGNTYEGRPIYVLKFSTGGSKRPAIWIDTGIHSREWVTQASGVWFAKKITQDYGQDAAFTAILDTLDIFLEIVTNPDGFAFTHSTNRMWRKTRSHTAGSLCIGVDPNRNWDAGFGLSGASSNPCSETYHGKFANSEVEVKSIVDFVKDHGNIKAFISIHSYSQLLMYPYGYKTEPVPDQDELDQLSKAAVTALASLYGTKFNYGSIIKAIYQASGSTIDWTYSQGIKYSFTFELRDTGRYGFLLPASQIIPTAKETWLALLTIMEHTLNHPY

[1] = Dissociation constant, pKa of the compound; type: physicochemical

| Structure (SMILES) | Ki (Carboxypeptidase A1) [µM] | pKa [1] |
| --- | --- | --- |
| O=C(C[C@@H](Cc1ccccc1)C(=O)O)C[N+](=O)[O-] | 0.16 |  |
| O=C(C[C@H](Cc1ccccc1)C(=O)O)C[N+](=O)[O-] | 31 |  |
| O=C(O)C(CC(=O)C(F)(F)F)Cc1ccccc1 (racemic) | 0.2 |  |
| CC(=O)CC(Cc1ccccc1)C(=O)O (racemic) | 207 |  |
| O=C(CBr)CC(Cc1ccccc1)C(=O)O (racemic) | 15 |  |
| O=C(CC(Cc1ccccc1)C(=O)O)C[N+](=O)[O-] (racemic) | 0.43 |  |
| O=C(O)C[N+](=O)[O-] [NITROACETIC ACID] |  | 1.68 |
